Data reported in US20230061319A1, “METHODS OF TREATING TUMORS” (CoImmune, Inc., priority 2020, published 2023).

What was measured:
[1] = than rapamycin (sirolimus); cited from earlier work
mRCC patients = test: Retrospective Kaplan-Meier analysis of overall survival in the Phase 3 ADAPT trial; assay type: in vivo, human
MART-1 specific CTLs [2] = test: MART-1 specific CTL effector function (IFN-γ, TNF-α, IL-2 secretion, CD107a expression); assay type: cell-based, human; conditions: at the higher concentrations tested; compared to untreated CTLs
Method: (§1) PME-CD40L DCs derived from HLA-A2-positive donors and transfected with antigen-encoding mRNAs were co-cultured with purified CD8^+ T cells. All co-cultures were performed in R-10 media. CD8^+ T cells were purified using the CD8+ T Cell Negative Selection Kit II (Miltenyi Biotec) from non-adherent cells harvested from the monocyte adherence step. The CD8^+ cells were mixed with DCs at a 10:1 ratio and incubated in the presence of 0.2 µg/mL IL-2 and 10 ng/mL IL-7 (R&D Systems). DC/T cell co-cultures were re-stimulated on day 7 and supplemented with 20 units/mL IL-2 plus 10 ng/mL IL-7. Induction of primary immune responses to MART-1 and memory/recall responses to CMV pp65 were measured on day 10.
To identify antigen-specific T cell responses and the phenotype of the antigen specific cells, T cells were harvested on day 10 post-stimulation and incubated with peptide-pulsed T2 target cells at a ratio of 10:1 for 4 hour with Brefeldin A, Monensin (BD Biosciences) and CD107a PE-Cy5. […] After 4 hours of co-culture, responder T cells were stained for 10 minutes with the requisite peptide/pentamer reagent, then washed once and re-stained with CD8-Eflour605, CD45RA-FITC, and CD28-APC. Cells were then washed in PBS and stained with Aquadye (BD Biosciences) for analysis of viability. Labeled cells were then fixed and permeabilized in Fixation/Permeabilization solution (eBiosciences). […]

CMV pp65 specific CTLs [3] = test: CMV pp65 specific recall CTL effector function (IFN-γ, TNF-α, IL-2 secretion, CD107a expression); assay type: cell-based, human
Method: as §1
(§2) To identify antigen-specific T cell responses and the phenotype of the antigen specific cells, T cells were harvested on day 10 post-stimulation and incubated with peptide-pulsed T2 target cells at a ratio of 10:1 for 4 hour with Brefeldin A, Monensin (BD Biosciences) and CD107a PE-Cy5. […] After 4 hours of co-culture, responder T cells were stained for 10 minutes with the requisite peptide/pentamer reagent, then washed once and re-stained with CD8-Eflour605, CD45RA-FITC, and CD28-APC. Cells were then washed in PBS and stained with Aquadye (BD Biosciences) for analysis of viability. Labeled cells were then fixed and permeabilized in Fixation/Permeabilization solution (eBiosciences). Cells where then stained with IFN-γ-PECy7, TNFa-AF700 and IL-2-PerCPcy5.5 in permeabilization buffer and resuspended in FACs buffer prior to acquisition.
To assess the impact mTOR inhibition would have on CTL effector function in vitro, CMV pp65 specific CTLs were assayed for the ability to secret the cytokines IFN-y, TNF-α and IL-2, and express the degranulation marker CD107a, which serves as a surrogate marker to measure lytic activity. Data presented in FIG. 2A and FIG. 2B measures the absolute numbers of CMV […] specific CTLs that secrete IFN-y, TNF-α or IL-2, or express CD107a in response to CMV pp65 peptide pulsed target cells. The absolute numbers of CMV^+ CTLs shown have been corrected for background non-specific responses to display only the antigen specific response for each parameter.

CMV pp65 specific CTLs [4] = test: Induction of CMV pp65 specific recall CTLs by PME-CD40L DCs in the presence of mTOR inhibitors; assay type: cell-based, human
Method: (§3) 300 x 10^6 peripheral blood mononuclear cells (PBMCs) were cultured in 30 mL AIM-V media (Thermo Fisher Scientific) in T150 flasks (Corning) for 2 hours to provide for the adherence of monocytes. Non-adherent cells were removed by washing the monolayers twice with cold phosphate buffered saline (PBS) (Cambrex), and the remaining monocytes were cultured in X-VIVO 15 medium (Cambrex) for 5 days, supplemented with 1000 U/mL each of granulocyte macrophage-colony stimulating factor (GM-CSF) (Bayer AG, Leukine® liquid) and IL-4 (R&D Systems). To achieve DC maturation, immature DCs were first cultured on day 5 with 10 ng/mL tumor necrosis factor alpha (TNF-α) (R&D Systems), 1000 µ/mL interferon gamma (IFN-y) (Actimmune), and 1 µg/mL prostaglandin E2 (PGE2) (Sigma). On day 6, phenotypically mature DCs were co-electroporated with RNA encoding CD40L (Argos Lot No. 101606 JSC) at a concentration of 3 ug per million DCs plus either human cytomegalovirus (CMV) pp65 or MART-1 encoding RNAs at 2 µg per million DCs (CMVpp65 RNA-Argos Lot No 071107XF, MART-1-APL RNA-Argos Lot No. 011909HC). Generation of MART-1 RNA and CD40L RNA is described in e.g., DeBenedette et al., J. Immunol. 181(8):5296-5305 (2008).
Electroporated DCs were cultured for an additional 4 hours in X-VIVO 15 media supplemented with 800 µ/mL GM-CSF and 500 µ/mL IL-4 at 1 x 10^6 DCs/mL in low adherence 6-well plates (Costar). After 4 hr, the DCs were harvested by washing with cold PBS and prepared as a frozen formulation at 10 x 10^6 DCs/mL in 20% DMSO and 80% FBS, representing antigen electroporated Post Maturation Electroporated (PME)-CD40L DC preparations.
as §1, §2
CD8^+ cytotoxic T lymphocyte (CTL) responses were used to measure the pp65 CMV recall response induced by PME-CD40L DCs in the presence of mTOR inhibitors everolimus and temsirolimus. PME-CD40L DCs encoding CMV pp65 were used to stimulate recall CTL responses in the presence of the mTOR inhibitors under evaluation for compatibility with the CMN-001 product. The expansion of recall CTLs specific for CMV pp65 was determined on day 3 after a second weekly stimulation with PME-CD40L DCs.

B cells = test: TGF-β secretion by stimulated PBMCs from mRCC patients (ELISA); conditions: everolimus 10 ng/mL, 6 days, supernatant
Method: Frozen patient PBMC were thawed, counted, and washed in PBS. The cells were resuspended in X-VIVO 15 media (with gentamicin and phenol red; Lonza) at 2x10^6 cells/mL and incubated overnight in a 5% CO2 incubator at 37° C. The cells were counted and set up in culture at 1x10^6 cells/mL in X-VIVO 15 media. […] Everolimus (LC Laboratories) was added at 10 ng/mL to unstimulated or stimulated cultures. The cultures were incubated overnight in a 5% CO2 incubator at 37° C. for six days.
The concentration of total TGF-β1 in plasma and supernatant samples was quantified using the LEGEND MAX Total TGF-β1 ELISA Kit (Biolegend). Samples were prepared by acid treatment to activate latent TGF-β1 and then diluted 1:20 or 1:100 in assay buffer. Samples were incubated on a plate pre-coated with anti-TGF-β1 antibody for 2 hours. Anti-TGF-β1 was incubated for 1 hour, and the plate was washed and incubated with Avidin-HRP for 30 minutes. The plate was developed with TMB substrate solution and Stop solution, and was read at 450 nm and 570 nm using an ELx800 plate reader.
Thus, the impact of everolimus on B cell TGF-β production was investigated. PBMCs from mRCC patients were stimulated (“stim”) or left unstimulated (“control”) with or without everolimus addition as described in Example 1 to induce TGF-β secretion. TGF-β concentrations in the supernatant were measured after 6 days by ELISA.

MART-1 specific CTLs [5] = test: Priming of MART-1 specific CTLs by PME-CD40L DCs in the presence of mTOR inhibitors; assay type: cell-based, human; conditions: in the presence of the mTOR inhibitor, 10 ng/ml to 1 ug/ml
Method: as §3, with “Generation of MART-1 RNA and CD40L RNA is described in e.g., DeBenedette et al., J. Immunol. 181(8):5296-5305 (2008).” left out
PME-CD40L DCs derived from HLA-A2-positive donors and transfected with antigen-encoding mRNAs were co-cultured with purified CD8^+ T cells. […] Induction of primary immune responses to MART-1 and memory/recall responses to CMV pp65 were measured on day 10. […]

[6] = 10 ng/ml, compared to DC/CTL co-cultures without mTOR inhibitor, day 3 after second weekly stimulation

CO[C@H]1C[C@@H]2CC[C@@H](C)[C@@](O)(O2)C(=O)C(=O)N2CCCC[C@H]2C(=O)O[C@H]([C@H](C)C[C@@H]2CC[C@@H](OCCO)[C@H](OC)C2)CC(=O)[C@H](C)/C=C(\C)[C@@H](O)[C@@H](OC)C(=O)[C@H](C)C[C@H](C)/C=C/C=C/C=C/1C [everolimus]
pharmokinetics [1]: more favorable | OS (mRCC patients; SOC arm, everolimus during follow up): 13.4 months | OS (mRCC patients; SOC arm, everolimus during treatment): 17.7 months | OS (mRCC patients; combination arm (DC therapy), everolimus during follow up phase): 25.7 months | OS (mRCC patients; combination arm (DC therapy), everolimus during treatment phase): 19.3 months | median OS (mRCC patients; everolimus during the follow up phase (n=42), combination n=22, everolimus after SOC therapy n=20): 13.4 months | median OS (mRCC patients; everolimus during the treatment phase (n=49), combination n=38, everolimus alone n=11): 17.8 months | median overall survival (OS) (mRCC patients; everolimus treated population (n=91), everolimus as 2nd line, combination n=60, everolimus alone n=31): 13.6 months | numbers of MART-1+ CTL secreting a cytokine or expressing CD107a (MART-1 specific CTLs [2]): increased | numbers of CMV+ CTL secreting a cytokine or expressing CD107a (CMV pp65 specific CTLs [3]; 10 ng/ml, compared to untreated CTLs): increased | increase in effector function of CMV+ CTL (CMV pp65 specific CTLs [3]; 1 µg/ml): maintained | numbers of CMV pp65 specific CTLs (CMV pp65 specific CTLs [4]; [6]): increase | percentage of CMV pp65 specific CTLs (CMV pp65 specific CTLs [4]; [6]): increase | increase in absolute numbers of CMV+ CTL (CMV pp65 specific CTLs [4]; 1 µg/ml): evident | increase in percentage of CMV+ CTL (CMV pp65 specific CTLs [4]; 1 µg/ml): evident | concentration of TGF-β secreted by stimulated B cells (B cells): decrease | priming of MART-1 specific CTLs by PME-CD40L DC (MART-1 specific CTLs [5]): able to prime
